Assay results as given in article PMC12257510, “Structure-Guided Design of a KMT9 Inhibitor Prodrug with Cellular Activity” (Journal of Medicinal Chemistry, 2025).

Assays:
SW480 cells = assay: Cell proliferation assay (X-Celligence), SW480; type: cell-based; details: Xcelligence, vs DMSO
Experimental: (§1) Cell proliferation was determined using the X-Celligence RTCA system (Roche). For real-time recording of SW480, Caco-2 cell proliferation, 5000 cells/well were seeded in 16 well E-plates (Roche). Cells were seeded in the presence of DMSO or compound 8/8-N or transfected with the indicated siRNAs in the presence of Dharmafect (Life Technologies) 24 h before seeding in E-plates. Cell indices were automatically recorded every 15 min. Relative velocities represent the change of the cell index over time. The sequences of the siRNAs (Stealth RNAi siRNAs; Life Technologies) used in the experiments have been previously described.

Caco-2 cells = assay: Cell proliferation assay (X-Celligence), Caco-2; type: cell-based; details: Xcelligence, vs DMSO
Experimental: as §1, with “Cells were seeded in the presence of DMSO or compound 8/8-N or transfected with the indicated siRNAs in the presence of Dharmafect (Life Technologies) 24 h before seeding in E-plates.” left out

CCOC(=O)[C@@H](N)CCN(CCCNCCc1ccc(Oc2ccc(Cl)cc2)c(F)c1)C[C@H]1C[C@@H](n2ccc3c(NC)ncnc32)[C@H](O)[C@@H]1O [compound 8, Ethyl (S)-2-amino-4-((3-((4-(4-chlorophenoxy)-3-fluorophenethyl)amino)propyl) (((1R,2R,3S,4R)-2,3-dihydroxy-4-(4-(methylamino)-7H-pyrrolo[2,3-d]pyrimidin-7-yl)cyclopentyl)methyl)amino)butanoate]
Proliferation of SW480 cells (SW480 cells): also found in SW480 tumor cell lines | Proliferation of Caco-2 cells (Caco-2 cells): strongly suppressed proliferation
